Data as given in patent US9695155B2, “Herbicidal substituted pyrimidinyloxy benzene compounds” (E. I. DU PONT DE NEMOURS AND COMPANY, priority 2013, dated 2017).

Assays:
wheat = assay: Test A preemergence; assay type: in vivo, Triticum aestivum; conditions: 1000 g ai/ha, 0 to 100 scale, 0 no effect, 100 complete control, approx. 10 days
Procedure, shortened: (§1)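 Pre- and postemergence greenhouse screen. Soil: loam + sand. Spray carrier: solvent mixture, non-phytotoxic, with surfactant. Post timing at 1–2 leaves, height 2–10 cm. Readout: visual injury on a 0–100 scale roughly 10 days after application, untreated plants as reference.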

oilseed rape [1] = assay: Test C postemergence; assay type: in vivo, Brassica napus; conditions: for Plant response rating, Oilseed Rape: scale 0 to 100 (0 no effect, 100 complete control)
Procedure, shortened: (§2)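 Whole-plant greenhouse test with surfactant-containing solvent formulation, applied preemergence to sown loam–sand pots or postemergence to 2–18 cm plants. Scored by eye 13 to 15 days on, 0–100 scale.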

morningglory = assay: Test A preemergence; assay type: in vivo, Ipomoea spp.; conditions: 1000 g ai/ha, 0 to 100 scale, 0 no effect, 100 complete control, approx. 10 days
Procedure, shortened: as §1

barnyardgrass [2] = assay: Test C preemergence; assay type: in vivo, Echinochloa crus-galli; conditions: for Barnyardgrass plant response rating: preemergence
Procedure, shortened: as §2

soybean = assay: Test C postemergence; assay type: in vivo, Glycine max; conditions: for Plant response rating, Soybean: scale 0 to 100 (0 no effect, 100 complete control)
Procedure, shortened: as §2

waterhemp = assay: Test C postemergence; assay type: in vivo, Amaranthus rudis; conditions: for Plant response rating, Waterhemp: scale 0 to 100 (0 no effect, 100 complete control)
Procedure, shortened: as §2

velvetleaf [3] = assay: Test C postemergence; assay type: in vivo, Abutilon theophrasti; conditions: for Plant response rating, Velvetleaf: scale 0 to 100 (0 no effect, 100 complete control)
Procedure, shortened: as §2

sedge, umbrella = assay: Test B flooded paddy test; assay type: in vivo, Cyperus difformis; conditions: Flood, 250 g ai/ha; 0 to 100 scale where 0 is no effect and 100 is complete control
Procedure, shortened: (§3)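 Flooded to 3 cm at the 2-leaf stage, pots received compound through the paddy water and were kept at that depth under greenhouse conditions. After 13–15 days, effect was rated by eye relative to controls, 0 = none and 100 = complete control.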

velvetleaf [4] = assay: Test A postemergence; assay type: in vivo, Abutilon theophrasti; conditions: 1000 g ai/ha, 0 to 100 scale, 0 no effect, 100 complete control
Procedure, shortened: as §1

barnyardgrass [5] = assay: Test B flooded paddy test; assay type: in vivo, Echinochloa crus-galli; conditions: Flood, 250 g ai/ha; 0 to 100 scale where 0 is no effect and 100 is complete control
Procedure, shortened: as §3

corn = assay: Test C preemergence; assay type: in vivo, Zea mays; conditions: for Corn plant response rating: preemergence
Procedure, shortened: as §2

large (Lg) crabgrass = assay: Test C postemergence; assay type: in vivo, Digitaria sanguinalis; conditions: for Plant response rating, Crabgrass, Large: scale 0 to 100 (0 no effect, 100 complete control)
Procedure, shortened: as §2

oilseed rape [6] = assay: Test C preemergence; assay type: in vivo, Brassica napus; conditions: for Oilseed Rape plant response rating: preemergence
Procedure, shortened: as §2

barnyardgrass [7] = assay: Test C postemergence; assay type: in vivo, Echinochloa crus-galli; conditions: for Plant response rating, Barnyardgrass: scale 0 to 100 (0 no effect, 100 complete control)
Procedure, shortened: as §2

giant foxtail = assay: Test C preemergence; assay type: in vivo, Setaria faberii; conditions: for Foxtail, Giant plant response rating: preemergence
Procedure, shortened: as §2

[8] = 16 g ai/ha, postemergence, 0 is no effect, 100 is complete control
[9] = 125 g ai/ha, postemergence, visual rating
[10] = 16 g ai/ha, scale 0 to 100 (0 no effect, 100 complete control)
[11] = 62 g ai/ha, scale 0 (no effect) to 100 (complete control)
[12] = 125 g ai/ha, scale 0 (no effect) to 100 (complete control)
[13] = Preemergence, 31 g ai/ha, scale 0 to 100, 0 no effect, 100 complete control

N#Cc1cn(-c2c(Br)cccc2Oc2ncc(Cl)cn2)nn1 [Compound 116]
Wheat plant response rating (wheat): 40
Plant response rating (0 to 100), Oilseed Rape (oilseed rape [1]; [8]): 5
Plant response rating, Oilseed Rape (oilseed rape [1]; [9]): 40
Plant response rating, Oilseed Rape (oilseed rape [1]; Postemergence, 62 g ai/ha): 10
Morningglory plant response rating (morningglory): 100
Barnyardgrass plant response rating (barnyardgrass [2]; [10]): 0
Barnyardgrass plant response rating (barnyardgrass [2]; [11]): 45
Barnyardgrass plant response rating (barnyardgrass [2]; [12]): 70
Plant response rating, Barnyardgrass (barnyardgrass [2]; [13]): 25
Plant response rating (0 to 100), Soybean (soybean; [8]): 15
Plant response rating, Soybean (soybean; [9]): 95
Plant response rating, Soybean (soybean; Postemergence, 62 g ai/ha): 60
Plant response rating (0 to 100), Waterhemp (waterhemp; [8]): 65
Plant response rating, Waterhemp (waterhemp; [9]): 95
Plant response rating, Waterhemp (waterhemp; Postemergence, 62 g ai/ha): 80
Plant response rating (0 to 100), Velvetleaf (velvetleaf [3]; [8]): 25
Plant response rating, Velvetleaf (velvetleaf [3]; [9]): 85
Plant response rating, Velvetleaf (velvetleaf [3]; Postemergence, 62 g ai/ha): 60
Plant response rating, Sedge, Umbrella (sedge, umbrella): 30
Plant response rating, Velvetleaf (velvetleaf [4]): 100
Plant response rating, Barnyardgrass (barnyardgrass [5]): 0
Corn plant response rating (corn; [10]): 0
Corn plant response rating (corn; [11]): 5
Corn plant response rating (corn; [12]): 25
Plant response rating, Corn (corn; [13]): 0
Plant response rating (0 to 100), Crabgrass, Large (large (Lg) crabgrass; [8]): 5
Plant response rating, Crabgrass, Large (large (Lg) crabgrass; [9]): 30
Plant response rating, Crabgrass, Large (large (Lg) crabgrass; Postemergence, 62 g ai/ha): 15
Oilseed Rape plant response rating (oilseed rape [6]; [10]): 0
Oilseed Rape plant response rating (oilseed rape [6]; [11]): 98
Oilseed Rape plant response rating (oilseed rape [6]; [12]): 100
Plant response rating, Oilseed Rape (oilseed rape [6]; [13]): 5
Plant response rating (0 to 100), Barnyardgrass (barnyardgrass [7]; [8]): 0
Plant response rating, Barnyardgrass (barnyardgrass [7]; [9]): 20
Plant response rating, Barnyardgrass (barnyardgrass [7]; Postemergence, 31 g ai/ha, 13 to 15 days): 5
Plant response rating, Barnyardgrass (barnyardgrass [7]; Postemergence, 62 g ai/ha): 5
Foxtail, Giant plant response rating (giant foxtail; [10]): 0
Foxtail, Giant plant response rating (giant foxtail; [11]): 85
Foxtail, Giant plant response rating (giant foxtail; [12]): 95
Plant response rating, Foxtail, Giant (giant foxtail; [13]): 10
